Key:
[1] = Antioxidant activity assessed as trolox equivalent of ferric ion reducing activity using fe3+-TPTZ after 4 mins by FRAP assay; format: functional
[2] = Antioxidant activity assessed as trolox equivalent of DPPH scavenging activity after 4 mins by spectrophotometry; format: functional

Row | Compound | Activity [1] [equiv] | Activity [2] [equiv]
1 | C[C@@H]1O[C@@H](Oc2cc(O)cc(O)c2C(=O)CCc2ccc(O)c(O)c2)[C@H](O)[C@H](O)[C@H]1O | 0.72 | 0.48
2 | Oc1cc(O)c2c(c1)OC(c1ccc(O)c(O)c1)C(O)C2 (stereo not given) | 0.56 | 0.44
3 | O=c1c(O[C@@H]2O[C@H](CO)[C@@H](O)[C@H](O)[C@H]2O)c(-c2ccc(O)c(O)c2)oc2cc(O)cc(O)c12 | 0.56 | 0.56
4 | O=C(CCc1ccc(O)c(O)c1)c1c(O)cc(O)cc1O | 0.64 | 0.88
5 | O=c1c(O)c(-c2ccc(O)cc2)oc2cc(O)cc(O)c12 | 2.36 | 2.4

From ChEMBL document CHEMBL2429804, “Examination of the phenolic profile and antioxidant activity of the leaves of the Australian native plant Smilax glyciphylla” (J Nat Prod, 2013)
